BigSolDB 2.1

A solubility (mole fraction) (in ethanol, 273.15 K) of 0.209, a solubility (mole fraction) (in ethanol, 278.15 K) of 0.214 and a solubility (mole fraction) (in ethanol, 283.15 K) of 0.22 were found for `CC(C)(c1ccc(O)cc1)c1ccc(O)cc1` in this work. The solubility (mole fraction) (in ethanol, 288.15 K) was 0.226, the solubility (mole fraction) (in ethanol, 293.15 K) was 0.232 and the solubility (mole fraction) (in ethanol, 298.15 K) was 0.238. The solubility (mole fraction) (in ethanol, 303.15 K) was 0.245, the solubility (mole fraction) (in ethanol, 308.15 K) was 0.252 and the solubility (mole fraction) (in ethanol, 313.15 K) was 0.26. For the same molecule, the solubility (mole fraction) (in ethyl acetate, 273.15 K) was 0.234, the solubility (mole fraction) (in ethyl acetate, 278.15 K) was 0.238 and the solubility (mole fraction) (in ethyl acetate, 283.15 K) was 0.241. The solubility (mole fraction) (in ethyl acetate, 288.15 K) was 0.243, the solubility (mole fraction) (in ethyl acetate, 293.15 K) was 0.247 and the solubility (mole fraction) (in ethyl acetate, 298.15 K) was 0.252. It also gave a solubility (mole fraction) (in ethyl acetate, 303.15 K) of 0.256, a solubility (mole fraction) (in ethyl acetate, 308.15 K) of 0.261 and a solubility (mole fraction) (in ethyl acetate, 313.15 K) of 0.266. The solubility (mole fraction) (in n-butanol, 273.15 K) was 0.0745, the solubility (mole fraction) (in n-butanol, 278.15 K) was 0.0832 and the solubility (mole fraction) (in n-butanol, 283.15 K) was 0.094. The solubility (mole fraction) (in n-butanol, 288.15 K) was 0.106, the solubility (mole fraction) (in n-butanol, 293.15 K) was 0.119 and the solubility (mole fraction) (in n-butanol, 298.15 K) was 0.135. It also gave a solubility (mole fraction) (in n-butanol, 303.15 K) of 0.147, a solubility (mole fraction) (in n-butanol, 308.15 K) of 0.166 and a solubility (mole fraction) (in n-butanol, 313.15 K) of 0.183. It also gave a solubility (mole fraction) (in sec-butanol, 273.15 K) of 0.0343, a solubility (mole fraction) (in sec-butanol, 278.15 K) of 0.0391 and a solubility (mole fraction) (in sec-butanol, 283.15 K) of 0.0465. It also gave a solubility (mole fraction) (in sec-butanol, 288.15 K) of 0.0564, a solubility (mole fraction) (in sec-butanol, 293.15 K) of 0.0649 and a solubility (mole fraction) (in sec-butanol, 298.15 K) of 0.0725. It also gave a solubility (mole fraction) (in sec-butanol, 303.15 K) of 0.0846, a solubility (mole fraction) (in sec-butanol, 308.15 K) of 0.094 and a solubility (mole fraction) (in sec-butanol, 313.15 K) of 0.105.
